Nine compounds from patent US12304914B2, “Pyrazolo[3,4-d]pyrrolo[1,2-b]pyridazinyl compounds useful as IRAK4 inhibitors” (BRISTOL-MYERS SQUIBB COMPANY, priority 2019, dated 2025) can be followed below.

In the assay the target is IRAK4 (Homo sapiens (Human), UniProt Q9NWZ3). The assay is described as follows: IRAK4 Inhibition Assay. The class given is biochemical. The settings on record: ATP 500 μM; FL-peptide 1.5 μM; IRAK4 0.6 nM; 60 min room temperature; Caliper LABCHIP 3000. Here is the method:
The assays were performed in U-bottom 384-well plates. The final assay volume was 30 μL prepared from 15 μL additions of enzyme and substrates (fluoresceinated peptide and ATP) and test compounds in assay buffer (20 mM HEPES pH 7.2, 10 mM MgCl2, 0.015% Brij 35 and 4 mM DTT). The reaction was initiated by the combination of IRAK4 with substrates and test compounds. The reaction mixture was incubated at room temperature for 60 min. and terminated by adding 45 μL of 35 mM EDTA to each sample. The reaction mixture was analyzed on the Caliper LABCHIP® 3000 (Caliper, Hopkinton, MA) by electrophoretic separation of the fluorescent substrate and phosphorylated product. Inhibition data were calculated by comparison to no enzyme control reactions for 100% inhibition and vehicle-only reactions for 0% inhibition. The final concentrations of reagents in the assays are ATP, 500 μM; FL-IPTSPITTTYFFFKKK peptide 1.5 μM; IRAK4, 0.6 nM; and DMSO, 1.6%.

Each structure is given as a SMILES string.

Chain of IRAK4 (Q9NWZ3 whole entry): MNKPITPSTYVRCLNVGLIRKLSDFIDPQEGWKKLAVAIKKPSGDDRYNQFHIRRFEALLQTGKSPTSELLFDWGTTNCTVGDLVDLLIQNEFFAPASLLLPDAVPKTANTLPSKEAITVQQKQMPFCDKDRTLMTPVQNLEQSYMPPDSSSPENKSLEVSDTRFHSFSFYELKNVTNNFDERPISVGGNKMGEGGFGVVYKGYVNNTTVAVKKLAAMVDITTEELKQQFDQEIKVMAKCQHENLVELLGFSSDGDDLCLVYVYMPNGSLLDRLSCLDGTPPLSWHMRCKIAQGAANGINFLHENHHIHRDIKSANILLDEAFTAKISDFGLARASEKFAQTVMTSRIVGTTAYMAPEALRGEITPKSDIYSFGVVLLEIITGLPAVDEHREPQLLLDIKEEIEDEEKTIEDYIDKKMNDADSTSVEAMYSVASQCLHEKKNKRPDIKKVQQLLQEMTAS

As a reminder, the IC50 is the concentration that inhibits the measured activity by half. Take `CC(=O)N1CCC(Nc2nn(C(C)C)c3c2cnn2cc(-c4ccncc4)cc32)CC1` [Example 8, 1-(4-((1-isopropyl-8-(pyridin-4-yl)-1H-pyrazolo[3,4-d]pyrrolo[1,2-b]pyridazin-3-yl)amino)piperidin-1-yl)ethan-1-one]: the IC50 came to 139 nM.
Under `CC(C)n1nc(NCC2CCNCC2)c2cnn3cc(-c4cccnc4)cc3c21` [Example 1, 1-isopropyl-N-(piperidin-4-ylmethyl)-8-(pyridin-3-yl)-1H-pyrazolo[3,4-d]pyrrolo[1,2-b] pyridazin-3-amine] stands 896 nM.
Under `COC(=O)NC1CCC(Nc2nn(C(C)C)c3c2cnn2cc(-c4cccnc4)cc32)CC1` (stereo not drawn) [Example 6, methyl (4-((1-isopropyl-8-(pyridin-3-yl)-1H-pyrazolo[3,4-d]pyrrolo[1,2-b]pyridazin-3-yl)amino)cyclohexyl)carbamate] stands 696 nM; under `CC(C)n1nc(NC2CCNCC2)c2cnn3cc(-c4ccncc4)cc3c21` [Example 9, 1-isopropyl-N-(piperidin-4-yl)-8-(pyridin-4-yl)-1H-pyrazolo[3,4-d]pyrrolo[1,2-b] pyridazin-3-amine], 756 nM.
With `COC(=O)N1CCC(CNc2nn(C(C)C)c3c2cnn2cc(-c4cccnc4)cc32)CC1` [Example 2, methyl 4-(((1-isopropyl-8-(pyridin-3-yl)-1H-pyrazolo[3,4-d]pyrrolo[1,2-b]pyridazin-3-yl)amino)methyl)piperidine-1-carboxylate], the IC50 was found to be 1000 nM.
Under `COC(=O)N1CCC(CNc2nn(C(C)C)c3c2cnn2cc(-c4ccncc4)cc32)CC1` [Example 4, methyl 4-(((1-isopropyl-8-(pyridin-4-yl)-1H-pyrazolo[3,4-d]pyrrolo[1,2-b]pyridazin-3-yl)amino)methyl)piperidine-1-carboxylate] stands 232 nM.
`CC(C)n1nc(NCC2CCNCC2)c2cnn3cc(-c4ccncc4)cc3c21` [Example 3, 1-isopropyl-N-(piperidin-4-ylmethyl)-8-(pyridin-4-yl)-1H-pyrazolo[3,4-d] pyrrolo[1,2-b]pyridazin-3-amine]: the IC50 was found to be 211 nM.
On to `CC(C)n1nc(NCC2CCN(C)CC2)c2cnn3cc(-c4ccncc4)cc3c21` [Example 5, 1-isopropyl-N-((1-methylpiperidin-4-yl)methyl)-8-(pyridin-4-yl)-1H-pyrazolo[3,4-d] pyrrolo[1,2-b]pyridazin-3-amine], for which the IC50 is 143 nM.
Then `COC(=O)NC1CCC(Nc2nn(C(C)C)c3c2cnn2cc(-c4ccncc4)cc32)CC1` (stereo not drawn) [Example 7, methyl (4-((1-isopropyl-8-(pyridin-4-yl)-1H-pyrazolo[3,4-d]pyrrolo[1,2-b]pyridazin-3-yl)amino)cyclohexyl)carbamate], with 182 nM.
